Assay results from patent US20010012854A1, “MULTICATALYTIC PROTEASE INHIBITORS FOR USE AS ANTI-TUMOR AGENTS” (priority 1997, published 2001).

What was measured:
[1] = test system: Jurkat cells transfected with a control vector; experiment: Apoptotic nuclear changes (Hoechst staining) in Jurkat cells transfected with control vector; type: cell-based, human
Protocol: (§1) b. Cell culture. Human Jurkat T and HL-60 cells were grown in RPMI 1640 (Life Technologies, Inc.) supplemented with 10% fetal calf serum (Sigma), 100 units/ml of penicillin, 100 μg/ml of streptomycin and 2mM L-glutamine (growth medium). Jurkat T. cells overexpressing the Bcl-2 oncoprotein or vector alone (provided by Dr. D. Johnson, University of Pittsburgh, Pa.) were grown in the same growth medium with […] G418. Human cancer cell lines of breast (MCF-7, MDA-MB-231), prostate (DU145, PC3) and osteosarcoma (U2-OS), obtained from American Type Culture Collection (ATCC. Rockville, Md.)), were also grown in the RPMI growth medium. Human oral (SCC-25; from ATCC) and brain (SNB-19; Welch, W. C., et al. In Vitro Cell. Dev. Biol., 31:610-616, 1995) cancer cell lines, and normal (WI-38) and SV40-transformed human fibroblasts (WI-38 VA-13; from ATCC) were grown in DMEM medium containing 10% fetal calf serum, penicillin, streptomycin and L-glutamine.
(§2) d. Flow cytometry nuclear staining and DNA fragmentation assays. DNA content analysis using flow cytometry was performed as described previously (Nicoletti, I., et al. J. Immunol. Methods 139:271-279, 1992). To assay nuclear morphology, cells were washed with PBS, fixed with 70% ethanol for 1 h, and stained with Hoechst 33258 (1 mM) for 30 min. The nuclear morphology of cells was visualized by fluorescence microscope (OLYMPUS BH2). DNA fragmentation was assayed as described previously (Grant, S., et al. Cancer Res. 52:6270-6278, 1992).
The apoptosis-inducing potency of Compound A was compared with two standard chemotherapeutic anti-cancer agents, etoposide and cisplatin. […] By comparison, treatment with 50 μM etoposide for 8 h induced only ˜47% of these cells to undergo apoptosis (FIG. 3, panels c vs. a). Treatment of 10 μM Compound A, but not etoposide or cisplatin, induced apoptosis in human prostate, breast, tongue and brain cancer cells and also in SV40 DNA virus-transformed human fibroblasts (see FIGS. 5-7).

[2] = test system: Bcl-2-overexpressing Jurkat cells; experiment: Apoptosis in Bcl-2-overexpressing Jurkat cells (nuclear staining, western blot); type: cell-based, human
Protocol: as §1, §2
(§3) e. Whole cell extracts and western blot assay. To prepare whole cell extracts, cells were washed with PBS, and homogenized in lysis buffer (50 mM Tris, pH 8.0, 5 mM EDTA, 150 mM NaCl, 0.5% Nonidet P-40, 0.5 mM PMSF and 0.5 mM dithiothreitol). Following 30 min rocking at 4° C., the lysates were centrifuged and the supernatants were collected as whole cell extracts. The protein samples were then analyzed by sodium dodecyl sulfate-6% polyacrylamide gel electrophoresis (20-60 μg protein per lane) followed by the enhanced chemiluminescence Western blot assay using specific antibodies to CPP32, PARP, p21, p27 or RB.
It has been shown that overexpression of Bcl-2 oncoprotein inhibits apoptosis in many cell systems (Miura, M., et al., J. Cell 75: 653-660, 1993). Bcl-2 expression in human Jurkat T cells for inhibition of Compound A-induced apoptosis was investigated.

[3] = test system: human breast cancer MDA-MB-231 cells; experiment: Detachment and apoptotic nuclear changes in MDA-MB-231 cells; type: cell-based; settings: MDA-MB-231, 24 h
Protocol: (§4) c. Treatment of cells with MCP inhibitor. Cells were treated with a specified MCP Inhibitor, a standard anticancer agent (etoposide or cisplatin), or DMSO (vehicle). During this process, morphological changes and cellular detachment (for attached cell lines) were monitored. At each time point, cells were harvested, and used for measurement of apoptosis and other biochemical events. In Example 1, infra, involving YVAD-CMK, Compound A was first added to Jurkat T cells. This was followed immediately by dividing the cells into multiple tissue culture flasks. YVAD-CMK was then added to an indicated concentration.
as §2
(§5) Detachment was also found in at least half of human breast cancer MDA-MB-231 and MCF-7 cells, after exposure to Compound A for 24 h.

[4] = test system: human breast cancer MCF-7 cells; experiment: Detachment and apoptotic nuclear changes in MCF-7 cells; type: cell-based; settings: MCF-7, 24 h
Protocol: as §4, §2, §5

[5] = test system: osteosarcoma cell line U2OS; experiment: Detachment and apoptosis in U2OS cells; type: cell-based, human; settings: U2OS (data not shown)
Protocol: as §4, §2

[6] = test system: SV40-transformed human fibroblasts (WI-38 VA13); experiment: Detachment, apoptotic nuclear changes and PARP cleavage in SV40-transformed fibroblasts; type: cell-based
Protocol: as §4, §2, §3
Whether Compound A has, any selectivity in induction of apoptosis between transformed and normal cells was investigated. Normal human fibroblast cell line (WI-38) and its SV40-transformed derivative (WI-38 VA13) were utilized. […]

[7] = test system: p21 and p27 in human breast cancer MDA-MB-231 cells; experiment: Western blot of p21 and p27 levels in MDA-MB-231 cells; type: cell-based; settings: MDA-MB-231, 15 μM, 6 hours
Protocol: as §3
Additionally, a band of 70 kDa whih may represent ubiquinated p70 was also observed. In contrast, etoposide caused only limited accumulation of p21 (≦4-fold) and p27 (≦2-fold) at 17 hours when used at concentrations up to 100 μM.

[8] = test system: p21 and p27 in SV-40 transformed WI-38 fibroblasts; experiment: Western blot of p21 and p27 levels in SV-40 transformed WI-38 fibroblasts; type: cell-based, human; settings: SV-40 transformed WI-38, 10 μM, 22 hours
Protocol: as §3
The accumulation of p21 and p27 following treatment with Compound A was also evaluated in SV-40 transformed and normal WI-38 fibroblasts.

[9] = molecular target: MCP chymotrypsin-like activity (Homo sapiens, UniProt P28074); settings: literature values (Iqbal et al.; Rock et al.); read-out: Ki toward the proteasome chymotrypsin-like activity; cited from earlier work

CC(C)C[C@@H](C=O)NC(=O)[C@@H](CCCNC(=N)N[N+](=O)[O-])NC(=O)C(CCCCCCCCN1C(=O)c2ccccc2C1=O)C1CCCC1 (stereo partly shown) [Compound A]
Cells exhibiting apoptotic nuclear morphology ([1]; 15 μM, 8 h): 30%
Cells exhibiting apoptotic nuclear changes ([1]; 30 μM, 3.5 h): ~100%
Effect of Bcl-2 overexpression on induced PARP cleavage and p112-115/RB production ([2]; 15 μM): failed to block cleavage of PARP and production of p112-115/RB
Effect of Bcl-2 expression on induced apoptotic nuclear changes ([2]; 15 μM, 8 h): did not inhibit the apoptotic nuclear changes
Cells exhibiting apoptosis-specific nuclear morphology ([2]; Bcl-2-overexpressing Jurkat, 30 μM, 3.5 h): ~100%
Apoptosis by nuclear staining [3]: apoptotic morphology in all of the detached and most of the attached cells
Detached cells [3]: at least half
Apoptosis by nuclear staining [4]: apoptotic morphology in all of the detached and most of the attached cells
Detached cells [4]: at least half
Induction of cellular detachment and apoptosis [5]: induced cellular detachment and apoptosis
PARP cleavage ([6]; SV40-transformed WI-38, total cell population): observed only in the transformed
Detachment and apoptotic nuclear changes ([6]; WI-38 VA13, 10 μM, up to 22 h): induced a detachment in the majority of SV40-transformed cells
Increase in level of p21 [7]: 45 fold
Levels of p27 [7]: slightly increased
Elevation of p27 levels [8]: 8 fold
Ki [9]: < 2 nM
